The text below walks through data of US20090130017A1, “Targeted short-lived drug delivery” (Searete LLC, priority 2007, published 2009).

The conditions of series [1]: in vivo; cited from earlier work.
For series [2] the following is noted: cited from earlier work.
Series [3] can be described thus: estimated blood plasma concentration of oxaliplatin in systemic therapy for colon cancer. The format is in vivo, human. The conditions noted are these: 85 mg per meter-squared, 145 mg total dose, 65 kg person, 5 liters of blood, assuming even distribution and constant rate of elimination.
For series [4] the following is noted: rat, in vivo; cited from earlier work.
The conditions of series [5]: cited from earlier work. The source holds these as a separate data set.
Setting [6] is: IV infusion of 20 mcg/kg over 24 hours.

Where two headings read alike, the source gives them in different places.

On to `Nc1ncnc2c1ncn2[C@@H]1O[C@H](CO)[C@@H](O)[C@H]1O` [Adenosine, adenosine], for which the “half-life (in words)” value in series [1] is “a few seconds”.
Regarding `O=C(O)CCCc1ccc(N(CCCl)CCCl)cc1` [Chlorambucil, chlorambucil], the half-life (in general, the time needed for the level to fall by half in the phase considered) in series [2] (in human) was “about 1.5 hours”.
For `CC[C@H]1OC(=O)[C@H](C)[C@@H](O[C@H]2C[C@@](C)(OC)[C@@H](O)[C@H](C)O2)[C@H](C)[C@@H](O[C@@H]2O[C@H](C)C[C@H](N(C)C)[C@H]2O)[C@](C)(O)C[C@@H](C)C(=O)[C@H](C)[C@@H](O)[C@]1(C)O` [Erythromycin, erythromycin], the half-life result in series [1] is on record as “approximately 1.5 hours”.
`N.N.O=C([O-])C1(C(=O)[O-])CCC1.[Pt+2]` [carboplatin]: in series [1], the half-life was 60 to 120 min.
Turning to `COc1cc([C@@H]2c3cc4c(cc3[C@@H](O[C@@H]3O[C@@H]5CO[C@@H](C)O[C@H]5[C@H](O)[C@H]3O)[C@H]3COC(=O)[C@H]23)OCO4)cc(OC)c1O` [etoposide], the half-life entry in series [2] (in children) was “about 3 hours”.
Regarding `O=C1[O][Pt]2([NH][C@@H]3CCCC[C@H]3[NH]2)[O]C1=O` [oxaliplatin], the blood plasma concentration result in series [3] is reported as “approximately 3 micrograms per milliliter”. In addition, the half-life in series [1] is 10 to 25 min.
For the molecule `COc1ccc(C(CN(C)C)C2(O)CCCCC2)cc1` (centres unmarked) [venlafaxine], the half-life entry in series [1] is given as “about 5 hours”.
As for NGF: nerve growth factor, the serum half-life result in series [4] is recorded as “about 7.2 minutes”.
heparin: the half-life result in series [1] is reported as “around 1.5 hours”.
For streptokinase, in series [1], the half-life result was “about 20 minutes”.
Take tissue plasminogen activator [TPA]: the circulation half-life result in series [1] was “approximately 5 minutes”.

B1: NEUPOGEN® (Filgrastim): colony stimulating factor product, normally used systemically (protein, chains of the INN, looked up)
chain: MTPLGPASSLPQSFLLKCLEQVRKIQGDGAALQEKLCATYKLCHPEELVLLGHSLGIPWAPLSSCPSQALQLAGCLSQLHSGLFLYQGLLQALEGISPELGPTLDTLQLDVADFATTIWQQMEELGMAPALQPTQGAMPAFASAFQRRAGGVLVASHLQSFLEVSYRVLRHLAQP
Regarding B1, in series [5] (setting [6]), the mean serum concentration result is “approximately 48 ng/mL” and the median serum concentration was around 56 ng/mL. In addition, the maximum serum concentration in series [5] (subcutaneous administration of 3.45 mcg/kg) was 4 ng/mL. In addition, the maximum serum concentration in series [5] (subcutaneous administration of 11.5 mcg/kg) is reported as 49 ng/mL. In addition, the half-life entry in series [1] is listed as “about 3.5 hours”.
